The text below walks through data of patent US10112939B2, “Tied-back benzamide derivatives as potent rock inhibitors” (Bristol-Myers Squibb Company, priority 2014, dated 2018).

pIC50: −log10 of the molar value.

The target of this test is ROCK2 (Homo sapiens (Human), UniProt O75116). Kind of test: ROCK assay (peptide substrate phosphorylation, LABCHIP 3000 Reader). It is filed as biochemical. Particulars: 5 μM ATP, 1.5 μM peptide substrate. Here is the method: Compounds were dissolved in DMSO so that the final concentration of DMSO was <2%, and the reaction was initiated with Rho kinase variants. After incubation, the reaction was terminated by the addition of EDTA and the phosphorylated and non-phosphorylated peptides separated using a LABCHIP® 3000 Reader (Caliper Life Sciences). […] Compounds were tested in dose-response format, and the inhibition of kinase activity was calculated at each concentration of compound.
Chain of ROCK2 (O75116 whole entry, species assumed): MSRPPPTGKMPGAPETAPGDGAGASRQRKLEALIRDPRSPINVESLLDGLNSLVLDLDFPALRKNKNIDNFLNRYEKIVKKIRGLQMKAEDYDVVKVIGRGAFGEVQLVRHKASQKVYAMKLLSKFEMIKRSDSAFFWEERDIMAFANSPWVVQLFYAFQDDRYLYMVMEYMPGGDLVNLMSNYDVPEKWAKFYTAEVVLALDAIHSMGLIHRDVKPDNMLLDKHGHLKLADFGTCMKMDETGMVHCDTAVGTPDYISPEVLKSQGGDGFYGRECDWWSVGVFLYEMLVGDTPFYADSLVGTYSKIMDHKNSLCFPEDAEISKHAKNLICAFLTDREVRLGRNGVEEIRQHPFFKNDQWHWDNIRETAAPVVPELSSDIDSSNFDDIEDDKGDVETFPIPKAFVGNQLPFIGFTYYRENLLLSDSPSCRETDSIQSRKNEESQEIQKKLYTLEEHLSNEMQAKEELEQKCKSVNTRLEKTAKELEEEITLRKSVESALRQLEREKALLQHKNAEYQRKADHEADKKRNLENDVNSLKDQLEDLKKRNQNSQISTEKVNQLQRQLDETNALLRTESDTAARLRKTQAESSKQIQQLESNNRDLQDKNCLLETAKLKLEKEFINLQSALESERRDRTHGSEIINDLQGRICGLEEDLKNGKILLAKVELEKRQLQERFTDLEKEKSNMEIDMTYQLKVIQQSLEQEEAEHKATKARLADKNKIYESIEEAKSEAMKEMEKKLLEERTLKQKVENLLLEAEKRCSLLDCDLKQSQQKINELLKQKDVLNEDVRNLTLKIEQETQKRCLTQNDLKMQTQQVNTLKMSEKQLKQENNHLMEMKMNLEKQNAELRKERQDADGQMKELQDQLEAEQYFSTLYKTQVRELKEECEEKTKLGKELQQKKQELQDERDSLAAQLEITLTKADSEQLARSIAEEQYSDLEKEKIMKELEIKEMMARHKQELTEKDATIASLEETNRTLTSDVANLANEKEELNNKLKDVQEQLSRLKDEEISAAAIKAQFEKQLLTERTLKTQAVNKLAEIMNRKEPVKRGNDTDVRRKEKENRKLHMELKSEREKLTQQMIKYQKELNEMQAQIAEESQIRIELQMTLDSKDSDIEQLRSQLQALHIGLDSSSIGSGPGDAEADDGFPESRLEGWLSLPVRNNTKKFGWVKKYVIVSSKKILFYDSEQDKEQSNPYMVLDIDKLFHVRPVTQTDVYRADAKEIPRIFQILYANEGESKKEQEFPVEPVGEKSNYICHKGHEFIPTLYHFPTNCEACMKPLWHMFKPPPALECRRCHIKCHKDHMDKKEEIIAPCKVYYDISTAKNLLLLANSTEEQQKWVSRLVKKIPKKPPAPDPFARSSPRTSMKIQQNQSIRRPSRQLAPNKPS
Regarding `COc1cc(C(=O)N[C@@H]2CNC[C@H]2c2ccccc2)ccc1-c1cn[nH]c1` (racemic) [Example 70, trans-(±)-3-Methoxy-N-(4-phenylpyrrolidin-3-yl)-4-(1H-pyrazol-4-yl)benzamide], the negative logarithm of the IC50 (pIC50) is 8.89.
Turning to `COc1cc(C(=O)N2CCC(c3ccccc3)C2)ccc1-c1cn[nH]c1` (stereo not drawn) [Example 2, 4-[2-methoxy-4-(3-phenyl-pyrrolidine-1-carbonyl)phenyl]-1H-pyrazole], the pIC50 was 6.45.
For `COc1cc(C(=O)N2CCC[C@H]2CO)ccc1-c1cn[nH]c1` [Example 3, [(2S)-1-[3-methoxy-4-(1H-pyrazol-4-yl)benzoyl]pyrrolidin-2-yl]methanol] the value was 5.87; for `COc1cccc(C2CCCN2C(=O)c2ccc(-c3cn[nH]c3)c(OC)c2)c1` (stereo not drawn) [Example 4, 4-{2-methoxy-4-[2-(3-methoxyphenyl)pyrrolidine-1-carbonyl]phenyl}-1H-pyrazole], 7.50.
Take `COc1cc(C(=O)NC2CCc3ccccc32)ccc1-c1cn[nH]c1` (stereo not drawn) [Example 5, N-(2,3-dihydro-1H-inden-1-yl)-3-methoxy-4-(1H-pyrazol-4-yl)benzamide]: the pIC50 was 7.49. This pIC50 and that of the molecule before are within 0.2 log units of each other.
For `COc1cc(C(=O)N2CCCC2c2ccccc2OC)ccc1-c1cn[nH]c1` (stereo not drawn) [Example 6, 4-{2-methoxy-4-[2-(2-methoxyphenyl)pyrrolidine-1-carbonyl]phenyl}-1H-pyrazole] the value was 6.29.
For `COc1cc(C(=O)N2CCCC(c3ccccc3)C2)ccc1-c1cn[nH]c1` (stereo not drawn) [Example 7, 1-[3-methoxy-4-(1H-pyrazol-4-yl)benzoyl]-3-phenylpiperidine] the value was 5.84; for `COc1cc(C(=O)N2CCCCC2c2ccccc2F)ccc1-c1cn[nH]c1` (stereo not drawn) [Example 8, 2-(2-fluorophenyl)-1-[3-methoxy-4-(1H-pyrazol-4-yl)benzoyl] piperidine], 7.07.
For `COc1cccc(C2CCCCN2C(=O)c2ccc(-c3cn[nH]c3)c(OC)c2)c1` (stereo not drawn) [Example 9, 1-[3-methoxy-4-(1H-pyrazol-4-yl)benzoyl]-2-(3-methoxy-phenyl) piperidine] the value was 6.17; for `COc1cc(C(=O)N2CCCC2c2ccc(Cl)cc2)ccc1-c1cn[nH]c1` (stereo not drawn) [Example 10, 4-{4-[2-(4-chlorophenyl)pyrrolidine-1-carbonyl]-2-methoxyphenyl}-1H-pyrazole], 6.94; for `COc1cccc(C2CCCN2C(=O)c2ccc(-c3cn[nH]c3)c(OC)c2)c1` (stereo not drawn) [Example 11, 4-{2-methoxy-4-[2-(3-methoxyphenyl)pyrrolidine-1-carbonyl]phenyl}-1H-pyrazole], 5.79.
As to `COc1cccc(C2CCCN2C(=O)c2ccc(-c3cn[nH]c3)c(OC)c2)c1` (stereo not drawn) [Example 12, 4-{2-methoxy-4-[2-(3-methoxyphenyl)pyrrolidine-1-carbonyl]phenyl}-1H-pyrazole], the pIC50 was 7.90. This pIC50 is 2.11 log units higher than that of the molecule before.
For `COc1cc(C(=O)N2CCc3ccccc32)ccc1-c1cn[nH]c1` [Example 13, 1-[3-methoxy-4-(1H-pyrazol-4-yl)benzoyl]-2,3-dihydro-1H-indole] the value was 6.10; for `COc1cc(C(=O)N2CCCC2Cc2ccccc2)ccc1-c1cn[nH]c1` (stereo not drawn) [Example 14, 4-[4(2-benzyl-pyrrolidine-1-carbonyl)-2-methoxy-phenyl]-1H-pyrazole], 6.74; for `COc1cc(C(=O)N2CCCC2c2cccc(Br)c2)ccc1-c1cn[nH]c1` (stereo not drawn) [Example 15, 4-{4-[2-(3-bromophenyl)pyrrolidine-1-carbonyl]-2-methoxyphenyl}-1H-pyrazole], 7.51.
Turning to `COc1cc(C(=O)N2CCCC2c2cccc(S(N)(=O)=O)c2)ccc1-c1cn[nH]c1` (stereo not drawn) [Example 16, 3-{1-[3-methoxy-4-(1H-pyrazol-4-yl)benzoyl]pyrrolidin-2-yl}benzene-1-sulfonamide], the pIC50 was 8.45. This pIC50 lies 0.94 log units higher than the previous one.
For `COc1cc(C(=O)N2CCCC2c2cccc(S(N)(=O)=O)c2)ccc1-c1cn[nH]c1` (stereo not drawn) [Example 17, 3-{1-[3-methoxy-4-(1H-pyrazol-4-yl)benzoyl]pyrrolidin-2-yl}benzene-1-sulfonamide] the value was 5.89; for `COc1cc(C(=O)N2CCCC2c2cccc(S(N)(=O)=O)c2)ccc1-c1cn[nH]c1` (stereo not drawn) [Example 18, 3-{1-[3-methoxy-4-(1H-pyrazol-4-yl)benzoyl]pyrrolidin-2-yl} benzene-1-sulfonamide], 8.55; for `COc1cc(C(=O)N2CCCC2c2ccc(F)cc2)ccc1-c1cn[nH]c1` (stereo not drawn) [Example 19, 4-{4-[2-(4-fluorophenyl)pyrrolidine-1-carbonyl]-2-methoxyphenyl}-1H-pyrazole], 7.38.
`COc1cc(C(=O)N2CCCC2c2ccccc2F)ccc1-c1cn[nH]c1` (stereo not drawn) [Example 20, 4-{4-[2-(2-fluorophenyl)pyrrolidine-1-carbonyl]-2-methoxyphenyl}-1H-pyrazole] had a pIC50 of 7.83.
As for `COc1cc(C(=O)N2CCCC2c2cccc(O)c2)ccc1-c1cn[nH]c1` (stereo not drawn) [Example 21, 3-{1-[3-methoxy-4-(1H-pyrazol-4-yl)benzoyl]pyrrolidin-2-yl}phenol], the pIC50 was 8.56.
Molecule `COc1cc(C(=O)N2CCCC2c2ccc(C(F)(F)F)cc2)ccc1-c1cn[nH]c1` (stereo not drawn) [Example 22, 4-(2-methoxy-4-{2-[4-(trifluoromethyl)phenyl]pyrrolidine-1-carbonyl}phenyl)-1H-pyrazole] showed a pIC50 of 6.90. Against the preceding molecule, the pIC50 is 1.66 log units lower.
For `COc1cc(C(=O)N2CCCC2c2ccc(C)cc2)ccc1-c1cn[nH]c1` (stereo not drawn) [Example 23, 4-{2-methoxy-4-[2-(4-methyl-phenyl)pyrrolidine-1-carbonyl]phenyl}-1H-pyrazole] the value was 6.67; for `COc1cc(C(=O)N2CCC[C@@H]2C(=O)OC(C)(C)C)ccc1-c1cn[nH]c1` [Example 24, tert-butyl (2R)-1-[3-methoxy-4-(1H-pyrazol-4-yl)benzoyl] pyrrolidine-2-carboxylate], 5.96; for `COc1ccc(C2CCCN2C(=O)c2ccc(-c3cn[nH]c3)c(OC)c2)cc1` (stereo not drawn) [Example 25, 4-{2-methoxy-4-[2-(4-methoxyphenyl)pyrrolidine-1-carbonyl]phenyl}-1H-pyrazole], 6.48.
Turning to `COc1cc(C(=O)N2CCCC2c2ccccc2)ccc1-c1cn[nH]c1` (stereo not drawn) [Example 26, 4-[2-methoxy-4-(2-phenyl-pyrrolidine-1-carbonyl)phenyl]-1H-pyrazole], the negative logarithm of the IC50 (pIC50) is 7.30.
For `COc1cc(C(=O)N2CCCC2c2cccc(C)c2)ccc1-c1cn[nH]c1` (stereo not drawn) [Example 27, 4-{2-methoxy-4-[2-(3-methyl-phenyl)pyrrolidine-1-carbonyl]phenyl}-1H-pyrazole] the value was 7.21.
For `COc1cc(C(=O)N2CCCC2c2ccccc2Cl)ccc1-c1cn[nH]c1` (stereo not drawn) [Example 28, 4-{4-[2-(2-chlorophenyl)pyrrolidine-1-carbonyl]-2-methoxyphenyl}-1H-pyrazole] the value was 7.80.
`COc1cc(C(=O)N2CCCC2c2ccc3ccccc3c2)ccc1-c1cn[nH]c1` (stereo not drawn) [Example 29, 4-{2-methoxy-4-[2-(naphthalen-2-yl)pyrrolidine-1-carbonyl]phenyl}-1H-pyrazole] showed a negative logarithm of the IC50 (pIC50) of 7.17.
For `COc1cc(C(=O)N2CCCC2c2ccc3c(c2)OCO3)ccc1-c1cn[nH]c1` (stereo not drawn) [Example 30, 4-{4-[2-(2H-1,3-benzodioxol-5-yl)pyrrolidine-1-carbonyl]-2-methoxyphenyl}-1H-pyrazole] the value was 7.12.
For `COc1cc(C(=O)N2CCC[C@@H]2c2cccc(S(C)(=O)=O)c2)ccc1-c1cn[nH]c1` [Example 31, 4-{4-[(2R)-2-(3-Methanesulfonylphenyl)pyrrolidine-1-carbonyl]-2-methoxyphenyl}-1H-pyrazole] the value was 7.94; for `COC(=O)c1cccc([C@H]2CCCN2C(=O)c2ccc(-c3cn[nH]c3)c(OC)c2)c1` [Example 32, Methyl 3-[(2R)-1-[3-methoxy-4-(1H-pyrazol-4-yl)benzoyl]pyrrolidin-2-yl]benzoate], 8.23; for `CCNC(=O)c1cccc(C2CCCN2C(=O)c2ccc(-c3cn[nH]c3)c(OC)c2)c1` (stereo not drawn) [Example 35, N-Ethyl-3-(1-(3-methoxy-4-(1H-pyrazol-4-yl)benzoyl)pyrrolidin-2-yl)benzamide], 8.31.
For `COc1cc(C(=O)N2CCC[C@@H]2c2cccc(C(=O)NCC(C)(C)O)c2)ccc1-c1cn[nH]c1` [Example 39, N-(2-hydroxy-2-methylpropyl)-3-[(2R)-1-[3-methoxy-4-(1H-pyrazol-4-yl)benzoyl]pyrrolidin-2-yl]benzamide] the value was 8.34.
The molecule `COc1cc(C(=O)N2CCC[C@@H]2c2cccc(C(=O)N(C)C)c2)ccc1-c1cn[nH]c1` [Example 40, 3-[(2R)-1-[3-methoxy-4-(1H-pyrazol-4-yl)benzoyl]pyrrolidin-2-yl]-N,N-dimethylbenzamide] had a pIC50 of 6.14.
Then `COc1cc(C(=O)N2CCC[C@@H]2c2cccc(C(=O)NC3CCS(=O)(=O)C3)c2)ccc1-c1cn[nH]c1` (stereo partly drawn) [Example 41, N-(1,1-dioxo-1λ^6-thiolan-3-yl)-3-[(2R)-1-[3-methoxy-4-(1H-pyrazol-4-yl)benzoyl]pyrrolidin-2-yl]benzamide], with 8.26; and `COc1cc(C(=O)N2CCC[C@@H]2c2cccc(C(=O)NC3CC3)c2)ccc1-c1cn[nH]c1` [Example 42, N-cyclopropyl-3-[(2R)-1-[3-methoxy-4-(1H-pyrazol-4-yl)benzoyl]pyrrolidin-2-yl]benzamide], with 8.34; and `COC(=O)c1cccc([C@H]2CC(OC(C)=O)CN2C(=O)c2ccc(-c3cn[nH]c3)c(OC)c2)c1` (stereo partly drawn) [Example 43, Methyl 3-[(2R)-4-(acetyloxy)-1-[3-methoxy-4-(1H-pyrazol-4-yl)benzoyl]pyrrolidin-2-yl]benzoate], with 7.26.
For `COc1cc(C(=O)N2CC(O)C[C@@H]2c2cccc(C(=O)O)c2)ccc1-c1cn[nH]c1` (stereo partly drawn) [Example 44, 3-[(2R)-4-Hydroxy-1-[3-methoxy-4-(1H-pyrazol-4-yl)benzoyl]pyrrolidin-2-yl]benzoic acid] the value was 7.30.

Usually pIC50 stands for −log10 of the IC50, conventionally taken in molar units. Read a high pIC50 as a low IC50.
